# Experimental data reported in patent US8461328B2, “Tricyclic heterocyclic compounds, compositions and methods of use thereof” (Genentech, Inc., priority 2010, dated 2013).
# Key:
# Type in all cases: biochemical
# JAK3 = target: T1, JAK3 (Homo sapiens, UniProt P52333); assay: JAK3 inhibition (Table 4); conditions: read-out: JAK3 Ki
# T1 construct: made in house; host or cells: SF9 insect cells (baculovirus)
# TYK2 = target: T2, TYK2 (Homo sapiens, UniProt P29597); assay: TYK2 inhibition (Table 4)
# T2 construct: made in house; host or cells: SF9 insect cells (baculovirus)
# T2 sequence (P29597 873-1187): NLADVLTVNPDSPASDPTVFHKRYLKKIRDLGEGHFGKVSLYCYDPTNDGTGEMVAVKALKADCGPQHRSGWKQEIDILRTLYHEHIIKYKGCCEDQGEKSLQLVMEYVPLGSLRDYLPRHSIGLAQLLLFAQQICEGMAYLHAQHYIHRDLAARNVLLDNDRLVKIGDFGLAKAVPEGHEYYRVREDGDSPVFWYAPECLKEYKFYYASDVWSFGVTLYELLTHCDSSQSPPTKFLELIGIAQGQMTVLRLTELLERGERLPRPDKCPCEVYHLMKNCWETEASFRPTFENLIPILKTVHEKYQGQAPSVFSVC
# JAK2 = target: T3, JAK2 (Homo sapiens, UniProt O60674); assay: JAK2 inhibition (Table 4); conditions: read-out: JAK2 Ki
# T3 construct: made in house; host or cells: SF9 insect cells (baculovirus)
# JAK1 = target: T4, JAK1 (Homo sapiens, UniProt P23458); assay: JAK1 inhibition (Table 4); conditions: read-out: JAK1 Ki
# T4 construct: made in house; host or cells: SF9 insect cells (baculovirus)
# T4 sequence (P23458 852-1154): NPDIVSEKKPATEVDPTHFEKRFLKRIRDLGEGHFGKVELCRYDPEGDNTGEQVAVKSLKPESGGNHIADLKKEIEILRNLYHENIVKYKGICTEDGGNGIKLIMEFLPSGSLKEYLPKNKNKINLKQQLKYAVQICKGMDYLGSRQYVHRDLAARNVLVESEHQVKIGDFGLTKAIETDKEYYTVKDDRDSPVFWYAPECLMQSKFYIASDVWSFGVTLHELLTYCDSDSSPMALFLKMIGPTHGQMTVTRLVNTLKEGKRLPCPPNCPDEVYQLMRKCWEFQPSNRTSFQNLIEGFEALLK
# T3 sequence (O60674 812-1132): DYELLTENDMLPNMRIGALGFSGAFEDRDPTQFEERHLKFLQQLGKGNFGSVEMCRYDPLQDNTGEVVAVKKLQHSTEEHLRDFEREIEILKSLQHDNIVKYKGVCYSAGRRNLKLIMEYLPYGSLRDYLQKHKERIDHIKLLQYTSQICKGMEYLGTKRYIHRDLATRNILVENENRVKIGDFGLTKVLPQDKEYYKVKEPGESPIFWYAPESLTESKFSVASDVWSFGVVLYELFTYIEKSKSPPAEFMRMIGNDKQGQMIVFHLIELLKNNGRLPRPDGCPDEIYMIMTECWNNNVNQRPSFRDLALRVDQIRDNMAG
# T1 sequence (P52333 783-1124): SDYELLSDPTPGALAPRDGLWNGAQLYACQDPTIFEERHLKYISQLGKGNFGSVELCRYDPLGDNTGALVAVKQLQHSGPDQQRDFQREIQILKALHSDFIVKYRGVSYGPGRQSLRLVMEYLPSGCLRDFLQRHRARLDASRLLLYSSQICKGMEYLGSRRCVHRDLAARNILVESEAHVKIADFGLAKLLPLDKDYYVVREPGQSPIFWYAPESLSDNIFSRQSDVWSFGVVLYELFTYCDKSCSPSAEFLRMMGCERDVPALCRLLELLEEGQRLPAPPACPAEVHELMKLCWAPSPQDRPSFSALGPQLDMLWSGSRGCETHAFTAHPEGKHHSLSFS
SMILES,Ki (JAK3) [nM],Ki (TYK2) [nM],Ki (JAK2) [nM],Ki (JAK1) [nM]
"CN(C)C(=O)CN1CCC[C@@H](n2cnc3cnc4[nH]ccc4c32)C1 [Example 60, N,N-Dimethyl-2-[(R)-3-(6H-1,3,5,6-tetraaza-as-indacen-1-yl)-piperidin-1-yl]acetamide]",625,715,201,135
"CN(C)C(=O)CN1CCC(n2cnc3cnc4[nH]ccc4c32)CC1 [Example 62, N,N-Dimethyl-2-[4-(6H-1,3,5,6-tetraaza-as-indacen-1-yl)-piperidin-1-yl]acetamide]",391,225,39.7,21.4
"c1cnc(N2CCC(n3cnc4cnc5[nH]ccc5c43)CC2)nc1 [Example 64, 1-(1-Pyrimidin-2-yl-piperidin-4-yl)-1,6-dihydro-1,3,5,6-tetraaza-as-indacene]",243,495,51.4,36.4
"c1cc(N2CCC(n3cnc4cnc5[nH]ccc5c43)CC2)ncn1 [Example 65, 1-(1-Pyrimidin-4-yl-piperidin-4-yl)-1,6-dihydro-1,3,5,6-tetraaza-as-indacene]",281,107,34.6,14.9
Cn1cc(CN2CCC(n3cnc4cnc5[nH]ccc5c43)CC2)cn1 [Example 68],354,1160,70.7,21
"c1cc2c(ncc3ncn([C@@H]4CCCN(C5COC5)C4)c32)[nH]1 [Example 71, (R)-1-(1-Oxetan-3-yl-piperidin-3-yl]-1,6-dihydro-1,3,5,6-tetraaza-as-indacene]",307,1680,378,264
"O=C(CS(=O)(=O)c1ccccc1)N1CCC[C@@H](n2cnc3cnc4[nH]ccc4c32)C1 [Example 76, 2-Benzenesulfonyl-1-[(R)-3-(6H-1,3,5,6-tetraaza-as-indacen-1-yl)-piperidin-1-yl]ethanone]",232,531,73,51.7
"O=C(CN1CCOCC1)N1CCC(n2cnc3cnc4[nH]ccc4c32)CC1 [Example 77, 2-Morpholin-4-yl-1-[4-(6H-1,3,5,6-tetraaza-as-indacen-1-yl)-piperidin-1-yl]ethanone]",2160,1940,185,64.6
c1ccc(CN2[C@@H]3CC[C@H]2C[C@H](n2cnc4cnc5[nH]ccc5c42)C3)cc1 [Example 81],297,222,15.8,23
"Cn1nccc1C(=O)N1CCC(n2cnc3cnc4[nH]ccc4c32)CC1 [Example 84, (2-Methyl-2H-pyrazol-3-yl)-[4-(6H-1,3,5,6-tetraaza-as-indacen-1-yl)-piperidin-1-yl]methanone]",747,160,36.1,11.6
"c1cc2c(ncc3ncn(C4CCN(C5CCOCC5)CC4)c32)[nH]1 [Example 85, 1-[-(Tetrahydro-pyran-4-yl)-piperidin-4-yl]-1,6-dihydro-1,3,5,6-tetraaza-as-indacene]",716,153,64.3,32.2
"O=S(=O)(c1cccnc1)N1CCC(n2cnc3cnc4[nH]ccc4c32)CC1 [Example 88, 1-[1-(Pyridine-3-sulfonyl)-piperidin-4-yl]-1,6-dihydro-1,3,5,6-tetraaza-as-indacene]",407,65.9,10.6,8.98
"O=S(=O)(N1CCC(n2cnc3cnc4[nH]ccc4c32)CC1)C(F)(F)F [Example 89, 1-(1-Trifluoromethanesulfonyl-piperidin-4-yl)-1,6-dihydro-1,3,5,6-tetraaza-as-indacene]",283,98.2,12.8,10.8
"c1cc2c(ncc3ncn([C@@H]4C[C@H]5CC[C@@H](C4)N5)c32)[nH]1 [Example 93, (1S,3S,5R)-1-(8-aza-bicyclo[3.2.1]oct-3-yl)-1,6-dihydro-1,3,5,6-tetraaza-as-indacene]",1000,323,102,29.6

# Stronger by Ki (JAK3), values ahead:
Ki (JAK3) [nM],Ki (TYK2) [nM],Ki (JAK2) [nM],Ki (JAK1) [nM],SMILES
27.7,30.5,6.01,1.96,"CS(=O)(=O)CCN1CCC(n2cnc3cnc4[nH]ccc4c32)CC1 [Example 59, 1-[1-(2-Methanesulfonyl-ethyl)-piperidin-4-yl]-1,6-dihydro-1,3,5,6-tetraaza-as-indacene]"
220,1050,253,153,"COCCN1CCC[C@@H](n2cnc3cnc4[nH]ccc4c32)C1 [Example 61, 1-[(R)-1-(2-Methoxy-ethyl)-piperidin-3-yl]-1,6-dihydro-1,3,5,6-tetraaza-as-indacene]"
96.5,73.9,12,7.54,"COCCN1CCC(n2cnc3cnc4[nH]ccc4c32)CC1 [Example 63, 1-[1-(2-Methoxy-ethyl)-piperidin-4-yl]-1,6-dihydro-1,3,5,6-tetraaza-as-indacene]"
68.3,240,9.86,7.15,"c1ccc(CN2CCC(n3nnc4cnc5[nH]ccc5c43)CC2)cc1 [Example 66, 1-(1-Benzyl-piperidin-4-yl)-1,6-dihydro-1,2,3,5,6-pentaaza-as-indacene]"
9.48,23.6,1.16,0.75,"Fc1cccc(CN2CCC(n3cnc4cnc5[nH]ccc5c43)CC2)c1 [Example 67, 1-[1-(3-Fluoro-benzyl)-piperidin-4-yl]-1,6-dihydro-1,3,5,6-tetraaza-as-indacene]"
93.3,26.6,4.41,3.44,"O=S(=O)(C1CC1)N1CCC(n2cnc3cnc4[nH]ccc4c32)CC1 [Example 69, 1-(1-Cyclopropanesulfonyl-piperidin-4-yl]-1,6-dihydro-1,3,5,6-tetraaza-as-indacene]"
38.6,68.9,15.1,12.5,"O=S(=O)(C1CC1)N1CCC[C@@H](n2cnc3cnc4[nH]ccc4c32)C1 [Example 70, (R)-1-(1-Cyclopropanesulfonyl-piperidin-3-yl]-1,6-dihydro-1,3,5,6-tetraaza-as-indacene]"
97.8,56.7,10.9,4.26,"c1cnc(N2CCC(n3cnc4cnc5[nH]ccc5c43)CC2)cn1 [Example 72, 1-(1-Pyrazin-2-yl-piperidin-4-yl]-1,6-dihydro-1,3,5,6-tetraaza-as-indacene]"
57.7,6.82,0.95,0.91,"N#Cc1cccc(S(=O)(=O)N2CCC(n3cnc4cnc5[nH]ccc5c43)CC2)c1 [Example 73, 3-[4-(6H-1,3,5,6-Tetraaza-as-indacen-1-yl)-piperidine-1-sulfonyl]benzonitrile]"
31.9,14.2,2.98,1.25,O=C(CN1CCC(n2cnc3cnc4[nH]ccc4c32)CC1)c1ccccc1 [Example 74]
60.7,19,8.53,5.89,"O=C(C1CC1)N1CCC[C@@H](n2cnc3cnc4[nH]ccc4c32)C1 [Example 75, Cyclopropyl-[(R)-3-(6H-1,3,5,6-tetraaza-as-indacen-1-yl)-piperidin-1-yl]methanone]"
77.1,167,22.3,15.7,"CS(=O)(=O)CC(=O)N1CCC[C@@H](n2cnc3cnc4[nH]ccc4c32)C1 [Example 79, 2-Methanesulfonyl-1-[(R)-3-(6H-1,3,5,6-tetraaza-as-indacen-1-yl)-piperidin-1-yl]ethanone]"
163,106,15.5,5.61,"c1ccc(CCN2CCC(n3cnc4cnc5[nH]ccc5c43)CC2)cc1 [Example 80, 1-(1-Phenethyl-piperidin-4-yl)-1,6-dihydro-1,3,5,6-tetraaza-as-indacene]"
14.2,194,11.3,3.5,OCCc1nc2cnc3[nH]ccc3c2n1C1CCN(Cc2ccccc2)CC1 [Example 82]
71.6,48.6,17.8,7.53,"Cc1nc2cnc3[nH]ccc3c2n1C1CCN(S(C)(=O)=O)CC1 [Example 86, 1-(1-Methanesulfonyl-piperidin-4-yl)-2-methyl-1,6-dihydro-1,3,5,6-tetraaza-as-indacene]"
46.9,63.1,8.75,6.81,"c1cc2c(ncc3ncn(C4CCN(Cc5cocn5)CC4)c32)[nH]1 [Example 90, 1-(1-Oxazol-4-ylmethyl-piperidin-4-yl)-1,6-dihydro-1,3,5,6-tetraaza-as-indacene]"
82.1,142,3.31,0.64,"CS(=O)(=O)c1cccc(CN2CCC(n3cnc4cnc5[nH]ccc5c43)CC2)c1 [Example 91, 1-[1-(3-Methanesulfonyl-benzyl)-piperidin-4-yl]-1,6-dihydro-1,3,5,6-tetraaza-as-indacene]"
25.6,109,6.15,3.64,"c1cnc(CN2CCC(n3cnc4cnc5[nH]ccc5c43)CC2)cn1 [Example 92, 1-(1-Pyrazin-2-ylmethyl-piperidin-4-yl)-1,6-dihydro-1,3,5,6-tetraaza-as-indacene]"
